Measured values taken from paper PMC12040169 (PLOS Biology, 2025).

Assay: in vitro
Conditions: human, hela cells, % viability

SMILES	viability at 28.5 h, 10 µM	viability at 28.5 h, 10 µM (bulk resorufin, single well)
CCc1ocnc1C(=O)NC1CCCN(Cc2ccccc2F)C1 (centres unmarked) [CBK306924]	104%	
Cc1cc(=O)n2ncnc2n1COCCO [CBK262919]	97.4%	
C=CCS(=O)(=O)N1CCC(c2nc(C)n3c(C)csc23)CC1 [CBK285251]	80%	
Cc1cn2c3c(=O)n(CCN4CCCCC4)c(=O)n(C)c3nc2n1CC1CCCO1 (centres unmarked) [CBK269820]	91.9%	
O=C(c1ccc(F)cc1)[C@H]1CCCN(C(=O)c2cc[nH]n2)C1 [CBK284331]	87.3%	
CN(C)C(=O)c1ccc(-c2ccc(OC3CCN(C(=O)CCc4cccnc4)CC3)nc2)cc1 [CBK155049]	93.3%	
Cc1ccccc1S(=O)(=O)Nc1cc(CN2C[C@H](C)NC[C@H]2C)c2occc2c1 [CBK107210T]	108%	
CCOC(=O)c1ccccc1NC(=O)N(Cc1ccc2ccccc2c1)CC1CCNCC1 [CBK049769]	98.3%	
O=C1NC2(CCc3ccccc31)CCN(C(=O)c1ccncc1)C2 (centres unmarked) [CBK283336]	90.9%	
Oc1ccc(-n2cc(-c3ccsc3)nn2)cc1 [CBK113093]	84.6%	
Cc1ccc(C)c(C2CCCN2C(=O)c2ccc(=O)n(CC(=O)Nc3ccc(F)cc3)c2)c1 (centres unmarked) [CBK286495]	93.4%	
CC(C)CCNC(=O)c1ccc(N2CCN(C(=O)c3ccccc3C(F)(F)F)CC2)nn1 [CBK153222]	114%	
CC(C)CN1CCCN(S(=O)(=O)c2ccc(-n3cnc(Cl)c3Cl)cc2)CC1 [CBK063017]	88.5%	
CC(C)(C#N)c1ccccc1CN1CCCCC1c1[nH]ncc1C(N)=O (centres unmarked) [CBK304740]	108%	
CCOc1ccc(-n2c(SCC(=O)Nc3cc(C(=O)O)ccc3Cl)nc3ccccc3c2=O)cc1 [CBK297512]	109%	
N[C@H](CCc1nc2ccccc2[nH]1)C(=O)O [CBK172614]	98.2%	
O=c1[nH]nc2c(S(=O)(=O)N3CCOCC3)cccn12 [CBK288469]	94.1%	
O=C(CCSc1c(Cl)cccc1[N+](=O)[O-])Nc1ccc(Br)c2cccnc12 [CBK266777]	101%	
Clc1ccccc1C1N(Cc2ccccc2)CCN1Cc1ccccc1 [CBK261217]	93.8%	
CCCc1c(Cc2c(Cl)cccc2Cl)c(=O)n(C)n1C [CBK115466]	93%	
Cc1nc(Nc2c(Cl)cc(S(N)(=O)=O)cc2Cl)sc1C(=O)Nc1ccccc1 [CBK265335]	106%	
O=C(Cc1cc(F)cc(F)c1F)Nc1cccc2[nH]ccc12 [CBK159650]	89%	
OCc1ccccc1-c1cncc(NCc2cccs2)n1 [CBK065345]	104%	

SMILES	viability at 28.5 h, 10 µM	viability at 28.5 h, 10 µM (bulk resorufin, single well)
O=C(C[n+]1ccccc1)c1ccccc1Cl [CBK016283B]	112%	
CC1(C)SC2c3ccccc3C(=O)N2[C@@H]1C(=O)N1CCC(C(=O)O)CC1 (some centres unmarked) [CBK286760]	89.4%	
O=C(c1cccc2[nH]ccc12)N1CCN(CCc2ccccc2)CC1 [CBK200203]	104%	
O=C1CCN(Cc2ccccc2)CCN1Cc1cccc(F)c1 [CBK284466]	96.4%	
CC(=O)C(C)Oc1ncn(-c2ccccc2)n1 (centres unmarked) [CBK008377]	101%	
Cc1ccc(Nc2cc(-c3cc4ccccc4o3)ncn2)cc1NS(C)(=O)=O [CBK091148]	93.6%	
Cc1sc2nc(SCC(=O)Nc3ccc(S(N)(=O)=O)cc3)n(-c3ccccc3)c(=O)c2c1C [CBK266600]	108%	
CN1CCN(S(=O)(=O)c2cccc3nsnc23)CC1 [CBK062428]	102%	
CNC(=O)c1cc(NC(=O)NCC2CC(=O)N(CCOC)C2)ccc1F (centres unmarked) [CBK304403]	107%	
COCCC(=O)N1C[C@@H](c2ccccc2F)[C@@]2(CCCC(=O)N2)C1 [CBK283360]	90.4%	
Cc1cc(Br)ccc1C(=O)NCCc1c[nH]c2ccc(Cl)cc12 [CBK159771]	91%	
O=C(Cc1nnn[nH]1)N1CCCC2(CCN(C(=O)c3ccoc3)C2)C1 (centres unmarked) [CBK137077]	91.8%	
O=C(NCc1cccs1)C1CCCN1c1nc(O)cc(C(F)(F)F)n1 (centres unmarked) [CBK004299]	91.3%	
CN(C)C(=O)c1cc(Br)cnc1NCc1ccc2c(c1)OCO2 [CBK076293]	110%	
CC(C)NC(=O)Cn1cnc2c1c(=O)n(C)c(=O)n2C [CBK133257]	86.9%	
CCNS(=O)(=O)C1CCN(c2cc(C#N)ccc2C(F)(F)F)C1 (centres unmarked) [CBK305402]	96.2%	
O=C(Nc1sc2c(c1C(=O)NCC1CCCO1)CCCC2)c1ccccc1[N+](=O)[O-] (centres unmarked) [CBK264608]	102%	
COc1ccc(C2CC(c3ccc4ccccc4c3)=NN2C(=O)COc2ccccc2C(=O)O)cc1 (centres unmarked) [CBK297503]	102%	
C/C(=N\N)c1ccc2[nH]c3c(c2c1)CCC/C3=N\N [CBK261812]	81.2%	
O=C(Cc1ccc(Cl)c(Cl)c1)Nc1ccccc1-c1ccc2c(c1)COC1(CCNCC1)O2 [CBK107890]		100%
C[C@@H](Cn1nc2c(cc1=O)CCCC2)NC(=O)c1cccc(F)c1 [CBK284561]	87.5%	
CCCC(=O)c1ccc(S(=O)(=O)N2CCCN(Cc3ccc4cccc(O)c4n3)CC2)cc1 [CBK062901]	102%	
O=C(CCSc1ccc(Cl)cc1)NCCN1CCOCC1 [CBK269352]	98.2%	

SMILES	viability at 28.5 h, 10 µM	viability at 28.5 h, 10 µM (bulk resorufin, single well)
O=C(NC(c1ccccc1)c1ccsc1)C1CCN(CCc2ccccc2)CC1 (centres unmarked) [CBK148433]	98.1%	
CC(=O)c1cc(C(=O)N2CCC(O)(c3ccccc3C)CC2)cs1 [CBK282532]	92.8%	
O=C(O)c1cccc(-n2c(S)nnc2-c2ccc3ccccc3n2)c1 [CBK265810]	103%	
Cc1cc(C)nc(-n2ncc3c2CC(c2cccs2)CC3=O)n1 (centres unmarked) [CBK269371]	107%	
COc1ccc2c(c1)CC(=O)NC21CCN(Cc2c(F)cccc2F)CC1 [CBK039835]	93.8%	
O=C(CCn1c2ccccc2c2ccccc21)N1CCn2cnnc2C1 [CBK283645]	90.4%	
CC(C(=O)Nc1cccc(N2CCNCC2)c1)c1ccccc1 (centres unmarked) [CBK004770T]	95.6%	
Cc1ncccc1C(=O)N1CCC2(CCc3ccccc3C(=O)N2)C1 (centres unmarked) [CBK283338]	108%	
N#Cc1ccsc1NC(=O)CN1CCC(CNc2ccccn2)C1 (centres unmarked) [CBK306117]	105%	
Cc1cc(NC(=O)c2ccc(S(=O)(=O)N(C)C)cc2)nc2c1c(=O)oc1ccccc12 [CBK291135]	104%	
CCOC(=O)c1cnn(C2CCCN(c3cccc(C#N)n3)C2)c1 (centres unmarked) [CBK306430]	81.5%	
O=C1c2ccccc2C(=O)N1CCc1c[nH]c2ccc(O)cc12 [CBK086794]	76%	
Cc1nc(S(=O)(=O)CCn2cccn2)n(CC2CCCO2)c1C (centres unmarked) [CBK305141]	96.6%	
COCCCOc1nccnc1NC(C)C [CBK115876]	90%	
COc1cc2c(cc1OC)CN(C(=O)c1cncnc1)CC2 [CBK122748]	105%	
COc1ccc(NS(=O)(=O)c2c(Cl)cccc2Cl)c(C(=O)NCc2ccccc2)c1 [CBK113952]	79.8%	
Cn1c(=O)oc2ccc(C(=O)Nc3cccc(-c4ccc(F)cc4)c3)cc21 [CBK286023]	84.9%	
O=C1N[C@@H]2CCN(C(=O)CCn3ccccc3=O)C[C@@H]2CCCCCOc2ccccc21 [CBK292039]	94.2%	
O=C(O)C1CCCN1S(=O)(=O)c1ccc([N+](=O)[O-])cc1 (centres unmarked) [CBK261424]	89.7%	
CC(C)(CNS(=O)(=O)c1ccc(Cl)cc1)OCc1ccccc1 [CBK262088]	91.4%	
COc1ccccc1NC(=O)CN(c1ccc(Br)cc1)S(C)(=O)=O [CBK265254]	99.3%	
O=C(Oc1cccc2cccnc12)c1ccc(Br)o1 [CBK019461]	89.4%	
S=c1n(CN2CCC(c3ccccc3)CC2)nc(Cc2ccccc2)n1-c1ccccc1 [CBK265037]	95.2%	

SMILES	viability at 28.5 h, 10 µM	viability at 28.5 h, 10 µM (bulk resorufin, single well)
CCn1cc(C(=O)NN)c(=O)c2cc(F)c(N3CCSCC3)cc21 [CBK307148]	98.8%	
Cc1nn(C)cc1CN1CCCC(c2cc3ccccc3cn2)C1 (centres unmarked) [CBK285041]	108%	
COc1ccc(Cn2c(=O)[nH]n(-c3ccccc3)c2=O)cc1F [CBK122772]	86.5%	
O=C(O)c1ccccc1C(=O)N1CCN(c2ccc([N+](=O)[O-])cc2)CC1 [CBK287181]	87.7%	
O=C(CCn1c(C(F)(F)F)cc2cccnc21)N1CCCC1 [CBK284962]	106%	
NNC(=O)c1cc(O)n[nH]1 [CBK262669]	106%	
CN(Cc1cnn(C)c1)C(=O)c1ccc(Br)cc1O [CBK305742]	104%	
O=C1CC(c2ccco2)Cc2c1cnn2-c1nc2ccccc2s1 (centres unmarked) [CBK269292]	81.4%	
Cc1cc(/C=C(/C#N)c2ccc(C(=O)O)cc2)c(C)n1-c1ccc(S(N)(=O)=O)cc1 [CBK268896]	116%	
O=C(OCc1nnsc1Cl)c1ccc(C(=O)c2ccccc2)cc1 [CBK297897]	109%	
CCOC(=O)CN1C(=O)S/C(=C/c2cc(Cl)c(OCC(=O)O)c(Br)c2)C1=O [CBK264614]	106%	
Cc1ccc(C(=O)N2Cc3ccccc3C2)cn1 [CBK200318]	94.9%	
COc1cccc(C2(NC(=O)c3c(C)noc3C)CCCC2)c1 [CBK283659]	98.1%	
CN(C)c1ccc(Nc2nc(NCCO)c3ccccc3n2)cc1 [CBK268392C]	87.6%	
Cc1nn(CCC(=O)NC(C)(C)CN2CCCC(C)C2)c(C)c1C (centres unmarked) [CBK282676]	91.4%	
CC(Oc1cccc(F)c1)C(=O)N(C)Cc1cccnc1 (centres unmarked) [CBK304841]	95.5%	
O=C(CSCc1ccc(Br)cc1)NCC1CCCO1 (centres unmarked) [CBK268506]	87.3%	
CC1=CCN(C(=O)c2cccc(S(=O)(=O)NCC3CCCO3)c2)CC1 (centres unmarked) [CBK304669]	95.5%	
O=C(Nc1cccc(N2CCNCC2)c1)c1cnccn1 [CBK029470T]	90.3%	
COCCNC(=O)C1CCN(c2nc3c(-c4cccc(C)c4)csc3c(=O)[nH]2)CC1 [CBK215629]	93.1%	
